Test results: ChEMBL document CHEMBL1201862, “PubChem BioAssay data set” (2004)
Active and inactive are the calls of the source. Unless noted, the rule behind the calls is not given here.

Legend:
[1] = Luminescence Cell-Based Dose Response to Identify Activators of 5'UTR Stem-Loop Driven Prion Protein mRNA Translation in H4-C Neuroglioblastoma Cells. [Related pubchem assays: 1829 (Project Summary), 1814 (Primary HTS)]; type: functional
H4 = experiment: Luminescence Cell-Based Dose Response HTS to Identify Activators of 5'UTR Stem-Loop Driven Prion Protein mRNA Translation in H4 Neuroglioblastoma Cells. [Related pubchem assays: 1829 (Project Summary), 1814 (Primary HTS)]; type: functional; details: Homo sapiens
[2] = Luminescence Cell-Based Dose Response to Identify Activators of Luciferase Translation or Activity in H4-C Neuroglioblastoma Cells. [Related pubchem assays: 1829 (Project Summary), 1814 (Primary HTS)]; type: functional
[3] = Luminescence Cell-Based Dose Response HTS to Identify Activators of Luciferase Translation or Activity in H4 […] Cells. [Related pubchem assays: 1829 (Project Summary), 1814 (Primary HTS)]; type: functional
[4] = Luminescence Cell-Based Dose Confirmation to Identify Activators of 5'UTR Stem-Loop Driven Alpha-Synuclein mRNA Translation in H4 Neuroglioblastoma Cells. [Related pubchem assays: 1829 (Project Summary), 1814 (Primary HTS)]; type: functional
[5] = African trypanosome bloodstream form growth inhibition – STIB900 strain, plate reader, cherry pick, dose response (AID 651893); type: functional, cell-based, Trypanosoma brucei rhodesiense; details: Trypanosoma brucei
[6] = anti-trypanosomal activity in BESM host cells – imaging, CA-I/72 strain, bovine embryo skeletal muscle, dry powder, dose response (AID 651885); type: functional, cell-based
[7] = Inhibition of Plasmodium falciparum NF54 Measured in Cell-Based System Using Plate Reader - 2138-11_Inhibitor_Dose_CherryPick_Activity.; type: functional
[8] = L6 myocyte viability loss – cell-based, plate reader, cherry-pick, cytotoxicity control, dose response (AID 651896); type: functional
[9] = antileishmanial activity on axenic amastigotes – plate reader, cherry pick, dose response (AID 651891); type: functional, cell-based; details: Leishmania donovani
[10] = T. cruzi growth inhibition in host cells, dose response, cell-based, plate reader, dry powder, set 2 (AID 652275); type: functional
[11] = intracellular Trypanosoma cruzi inhibitors in host cells – cell-based, plate reader, cherry-pick samples, set 3, dose response (AID 651818); type: functional;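 also: compounds incubated with infected cells for about four days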
[12] = Trypanosoma cruzi replication inhibitors in host cells – cell-based, plate reader, dry powder samples, dose response (AID 651845); type: functional
[13] = Inhibition of T. cruzi Tulahuen strain amastigotes in L-6 muscle cells Measured in Cell-Based and Microorganism Combination System Using Plate Reader - 2138-03_Inhibitor_Dose_CherryPick_Activity.; type: functional; details: Rattus norvegicus, L6
[14] = viability loss in CEM21 cells – cell-based, plate reader, dry powder, cytotoxicity control, dose response (AID 687026); type: functional
[15] = blockers of HIV-1 ZM109 envelope-driven cell-cell fusion – HeLa effector, CEM target cells, luciferase, cherry-pick, dose response (AID 652058); type: functional, cell-based;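 also: luciferase signal from HIV-1 Env mediated cell-cell fusion of effector and target cells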
[16] = blockers of HIV-1 envelope-mediated cell-cell fusion – cherry-pick, dose response (AID 652057); type: functional, cell-based
[17] = inhibition of Env-driven cell fusion – HIV entry, plate reader, dry powder, dose response (AID 687023); type: functional, cell-based
[18] = biological target: T1, Potassium channel subfamily K member 9 (Homo sapiens, UniProt Q9NPC2); experiment: KCNK9 flux blockade, concentration-response – cell-based, FluxOR thallium flux, selectivity assay for TASK1 inhibitor project, SAR follow-up (AID 652211); type: functional;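 also: potency is for inhibitors of the channel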
[19] = biological target: Potassium channel subfamily K member 3 (Rattus norvegicus, UniProt O54912); experiment: SAR analysis for the identification of selective inhibitors of the two-pore domain potassium channel TASK1(KCNK3):Automated Electrophysiology.; type: functional
[20] = biological target: T1, Potassium channel subfamily K member 9; experiment: TASK3 channel blockers, electrophysiology – cell-based, automated electrophysiology, selectivity assay for TASK1 (KCNK3) inhibitor project, SAR follow-up (AID 652210); type: functional
[21] = biological target: Potassium channel subfamily K member 3 (Homo sapiens, UniProt O14649); experiment: inhibition of human KCNK3 channel flux – CHO cells, FluxOR thallium flux, SAR follow-up (AID 652212); type: functional
[22] = biological target: NAD-dependent protein deacylase sirtuin-5, mitochondrial (Homo sapiens, UniProt Q9NXA8); experiment: blockers of sirtuin-5 peptide desuccinylation – biochemical, fluorescence imaging, cherry-pick, set 6, dose response (AID 720597)
[23] = biological target: RNA-editing ligase 1, mitochondrial (Trypanosoma brucei brucei, UniProt P86926); experiment: inhibition of trypanosome RNA editing ligase – biochemical, fluorescence, Trypanosoma brucei, dose response (AID 1117295); type: functional
[24] = biological target: T2, Low molecular weight phosphotyrosine protein phosphatase (Homo sapiens, UniProt P24666); experiment: inhibition of human LMPTP enzyme activity – biochemical, absorbance, pNPP substrate, LMPTP-A isoform, set 2, orthogonal assay, dose response (AID 743308); type: functional
[25] = biological target: T2, Low molecular weight phosphotyrosine protein phosphatase; experiment: inhibition of LMPTP-A enzymatic activity – biochemical, OMFP substrate, fluorescence intensity, set 2, dose response (AID 743307); type: functional

T2 sequence (P24666 whole entry, canonical isoform): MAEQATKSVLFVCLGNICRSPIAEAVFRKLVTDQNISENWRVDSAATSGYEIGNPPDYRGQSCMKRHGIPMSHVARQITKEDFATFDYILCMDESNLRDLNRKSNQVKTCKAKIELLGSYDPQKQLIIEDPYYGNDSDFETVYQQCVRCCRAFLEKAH
T1 sequence (Q9NPC2 whole entry, the tested form may be a part): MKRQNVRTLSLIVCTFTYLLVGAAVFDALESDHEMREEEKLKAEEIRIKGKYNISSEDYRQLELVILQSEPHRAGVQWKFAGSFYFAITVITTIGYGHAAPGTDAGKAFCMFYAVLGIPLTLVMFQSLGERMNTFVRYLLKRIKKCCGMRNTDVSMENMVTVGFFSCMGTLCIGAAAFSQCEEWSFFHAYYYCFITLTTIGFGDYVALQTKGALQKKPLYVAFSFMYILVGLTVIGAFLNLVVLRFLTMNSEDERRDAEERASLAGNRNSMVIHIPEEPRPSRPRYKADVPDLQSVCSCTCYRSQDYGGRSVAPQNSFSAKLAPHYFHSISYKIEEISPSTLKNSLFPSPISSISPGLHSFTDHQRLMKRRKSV
Chain of NAD-dependent protein deacylase sirtuin-5, mitochondrial (Q9NXA8 whole entry): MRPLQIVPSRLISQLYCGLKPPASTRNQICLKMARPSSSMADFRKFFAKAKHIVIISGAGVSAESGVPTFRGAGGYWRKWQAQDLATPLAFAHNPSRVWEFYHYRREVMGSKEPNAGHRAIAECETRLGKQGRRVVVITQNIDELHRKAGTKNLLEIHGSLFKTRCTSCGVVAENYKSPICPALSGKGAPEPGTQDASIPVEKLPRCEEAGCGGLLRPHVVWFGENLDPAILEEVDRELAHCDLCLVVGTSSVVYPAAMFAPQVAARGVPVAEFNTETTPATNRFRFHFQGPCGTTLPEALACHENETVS
Chain of Potassium channel subfamily K member 3 (Homo sapiens, UniProt O14649) (O14649 whole entry): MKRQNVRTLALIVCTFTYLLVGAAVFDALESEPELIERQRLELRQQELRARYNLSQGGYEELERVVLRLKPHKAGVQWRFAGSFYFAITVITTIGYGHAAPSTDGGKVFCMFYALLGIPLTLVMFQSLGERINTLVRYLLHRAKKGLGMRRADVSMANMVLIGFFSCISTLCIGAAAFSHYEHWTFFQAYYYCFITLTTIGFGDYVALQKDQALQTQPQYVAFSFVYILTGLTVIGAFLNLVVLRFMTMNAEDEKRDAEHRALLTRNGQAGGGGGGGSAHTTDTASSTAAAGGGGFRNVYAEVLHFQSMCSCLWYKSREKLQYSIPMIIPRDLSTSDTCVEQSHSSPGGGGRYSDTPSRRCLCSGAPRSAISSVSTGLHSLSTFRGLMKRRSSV
Chain of Potassium channel subfamily K member 3 (Rattus norvegicus, UniProt O54912) (O54912 whole entry, the tested form may be a part): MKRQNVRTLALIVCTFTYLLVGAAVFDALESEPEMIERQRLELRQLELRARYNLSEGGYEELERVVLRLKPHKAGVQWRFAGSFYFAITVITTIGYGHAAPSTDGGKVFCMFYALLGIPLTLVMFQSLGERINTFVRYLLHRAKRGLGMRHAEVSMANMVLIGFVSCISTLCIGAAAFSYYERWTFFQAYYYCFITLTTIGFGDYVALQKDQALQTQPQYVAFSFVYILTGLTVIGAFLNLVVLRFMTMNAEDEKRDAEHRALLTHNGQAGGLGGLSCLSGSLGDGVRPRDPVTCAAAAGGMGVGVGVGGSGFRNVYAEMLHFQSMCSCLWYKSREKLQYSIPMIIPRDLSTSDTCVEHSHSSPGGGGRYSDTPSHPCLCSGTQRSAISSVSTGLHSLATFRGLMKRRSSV
Chain of RNA-editing ligase 1, mitochondrial (P86926 whole entry, canonical isoform): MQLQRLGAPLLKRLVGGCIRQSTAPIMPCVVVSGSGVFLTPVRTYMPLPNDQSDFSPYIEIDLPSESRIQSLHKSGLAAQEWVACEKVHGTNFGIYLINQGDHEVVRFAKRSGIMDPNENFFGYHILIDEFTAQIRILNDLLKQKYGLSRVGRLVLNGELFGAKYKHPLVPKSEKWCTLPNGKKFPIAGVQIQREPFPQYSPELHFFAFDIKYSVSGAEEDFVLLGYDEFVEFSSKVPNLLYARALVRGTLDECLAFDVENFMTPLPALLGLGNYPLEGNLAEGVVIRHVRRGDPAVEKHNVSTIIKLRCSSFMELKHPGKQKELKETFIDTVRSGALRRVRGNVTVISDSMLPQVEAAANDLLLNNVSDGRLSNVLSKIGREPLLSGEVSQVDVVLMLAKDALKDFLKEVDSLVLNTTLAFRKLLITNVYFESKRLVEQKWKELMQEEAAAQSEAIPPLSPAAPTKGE

## Cc1nc2c(-c3ccccc3)cnn2c(N2CCOCC2)c1C
[1]
  EC50: 246 nM (active)
H4
  EC50: 108 nM (active)
[2]
  EC50: 246 nM (active)
[3]
  EC50: < 100 nM (active)
[4]
  EC50: 2380 nM (active)

## C[C@@H]1CN([C@H](C)CO)C(=O)c2cccc(NC(=O)c3ccncc3)c2O[C@H]1CN(C)Cc1ccccc1
[5]
  IC50: 6140 nM (inactive)
[6]
  IC50: 14.4 nM (active)
[7]
  IC50: 5640 nM (inactive)
[8]
  IC50: > 100000 nM (inactive)
[9]
  IC50: > 100000 nM (inactive)
[10]
  AC50: 5.61 nM (active)
[11]
  AC50: 80 nM (active)
[12]
  AC50: 64 nM (active)
[13]
  IC50: 5640 nM (inactive)

## C[C@@H]1CN([C@@H](C)CO)C(=O)c2cccc(NS(=O)(=O)c3ccc(F)cc3)c2O[C@@H]1CN(C)Cc1ccc(C(F)(F)F)cc1
[14]
  AC50: 43900 nM (active)
[15]
  AC50: 451 nM (active)
[16]
  AC50: 295 nM (active)
[17]
  AC50: 4050 nM (active)

## CCOc1ccccc1NC(=O)c1cccc(NC(=O)CC2CCCC2)c1
[18]
  IC50: 4170 nM (active)
[19]
  IC50: 320 nM (active)
[20]
  IC50: 3900 nM (active)
[21]
  IC50: 161 nM (active)

## CCCNC(=O)Nc1ccc2c(c1)C(=O)N(C)[C@H]1CC[C@H](CC(=O)NCC3CCCCC3)O[C@@H]1CO2
[22]
  AC50: > 30000 nM (inactive)

## COC(=O)C1=C(C)N(Cc2ccc(C(F)(F)F)cc2)C(NCc2ccc(C(F)(F)F)cc2)=NC1c1ccccc1C(F)(F)F (stereo unspecified)
[23]
  IC50: > 96600 nM (inactive)

## c1ccc(-c2cc(NCCCN3CCCCC3)c3ccccc3n2)cc1
[24]
  IC50: 2980 nM (active)
[25]
  IC50: 1560 nM (active)
